Results taken from the supplement of paper PMC7695840.
“And” between values parts separate entries of the source, which are not always exact repeats. Equal values may be shown once. Where a name gives a salt, the structure may show the parent alone.

Legend:
[1] = test system: Staphylococcus aureus MW2 (mecA+); test: IC50 (growth, competition assay); conditions: cefoxitin: subinhibitory
Outline: (§1)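 Pre-induced, 1:1-mixed fluorescent S. aureus MW2 mecA+ and ΔmecA strains were grown 20 h at 37 °C, 90% humidity, unshaken, in LB with a daily-set subinhibitory cefoxitin dose, in 1536-well plates. Compounds were given on five- or nine-point 2-fold gradients, in two dye-swapped replicates. DsRed (540/590) and GFP (485/520) were scaled per plate between single-strain control medians, with No Treatment then set to 0.5. Per-strain IC50 was the dose halving the No Treatment signal, or the maximal signal.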

[2] = test system: Staphylococcus aureus MW2 delta-mecA (mecA-); test: IC50 (growth, competition assay); conditions: cefoxitin: subinhibitory
Outline: as §1

Row | SMILES | IC50 ([1]; fluorescent label: DsRed) | IC50 ([1]; fluorescent label: GFP) | IC50 ([2]; fluorescent label: DsRed) | IC50 ([2]; fluorescent label: GFP)
1 | O=C1[C@H](CC[C@H](O)c2ccc(F)cc2)[C@@H](c2ccc(O)cc2)N1c1ccc(F)cc1 [Ezetimibe (Zetia)] | 80.3 µM | 108 µM | 24.9 µM | 14.9 µM
2 | COc1ccc(COc2ccc(Cc3cnc(N)nc3N)cc2OC)cc1 [GW2580] | 15.1 µM | 16.2 µM | < 9.85 µM | < 9.85 µM
3 | CC(C)(C)c1ccc(S(=O)(=O)/C=C/C#N)cc1 [Bay 11-7085] | < 9.85 µM | < 9.85 µM | < 9.85 µM | < 9.85 µM
4 | CCCCCCCCCCCCCCCC(=O)O[C@@H]1[C@@H](O)[C@@H](O)[C@@H]([C@H](NC(=O)[C@@H]2C[C@@H](CCC)CN2C)[C@H](C)Cl)O[C@@H]1SC [Clindamycin palmitate HCl] | < 9.85 µM | < 9.85 µM | < 9.85 µM | < 9.85 µM
5 | Cc1nnc(SCC2=C(C(=O)O)N3C(=O)[C@@H](NC(=O)Cn4cnnn4)[C@H]3SC2)s1 [Cefazolin sodium] | < 9.85 µM | < 9.85 µM | < 9.85 µM | < 9.85 µM
6 | Oc1c(Cl)cc(Cl)c2cccnc12 [CAPITROL] | 17.9 µM | 30 µM | < 9.85 µM | < 9.85 µM
7 | COc1ccc(Cc2cnc(N)nc2N)cc1OC [DIAVERIDINE] | 57.3 µM | 29.9 µM | 27.4 µM | 26.7 µM
8 | COc1cc2c(Oc3ccc(NC(=O)C4(C(=O)Nc5ccc(F)cc5)CC4)cc3F)ccnc2cc1OCCCN1CCOCC1 | 41.9 µM | 57.4 µM | 13.2 µM | 12.1 µM
9 | CC(=O)NC[C@H]1CN(c2ccc(N3CCOCC3)c(F)c2)C(=O)O1 [Linezolid] | < 9.85 µM | < 9.85 µM | < 9.85 µM | < 9.85 µM
10 | CC[C@@]1([C@@H]2O[C@@H]([C@H]3O[C@@](O)(CO)[C@H](C)C[C@@H]3C)C[C@@H]2C)CC[C@H]([C@]2(C)CC[C@]3(C[C@H](O)[C@@H](C)[C@@H]([C@@H](C)[C@@H](OC)[C@H](C)C(=O)O)O3)O2)O1 [Monensin sodium salt (Coban)] | 2.46 µM and < 9.85 µM | 8.62 µM and 13.9 µM | 3.16 µM and < 9.85 µM | < 0.498 µM
11 | C=C1/C(=C\C=C2/CCC[C@]3(C)[C@@H]([C@H](C)CCCC(C)C)CC[C@@H]23)C[C@@H](O)C[C@@H]1O [Alfacalcidol] | > 150 µM | > 150 µM | > 150 µM | > 150 µM
12 | O=C(O)c1ccccc1Nc1cccc(C(F)(F)F)c1 [ARLEF] | 17.2 µM | 19 µM | < 9.85 µM | 24.8 µM
13 | Cc1cc(C2CCCCC2)n(O)c(=O)c1 [Ciclopirox ethanolamine] | 24.5 µM and 49.9 µM | 29.7 µM and 60.7 µM | 28.3 µM and 61.2 µM | 29.8 µM and 57.2 µM
14 | CCN(CC)CCOc1ccc(Nc2ncc3cc(-c4c(Cl)cccc4Cl)c(=O)n(C)c3n2)cc1 | 85.1 µM | 106 µM | 30.6 µM | 36.5 µM
15 | CCCCC(CC)COC(=O)CC(C(=O)OCC(CC)CCCC)S(=O)(=O)O (centres undefined) [COLACE] | 56.6 µM | 52.5 µM | 18 µM | 13.5 µM
16 | [O-][n+]1ccccc1[S-].[O-][n+]1ccccc1[S-].[Zn+2] [ZINC OMADINE] | < 9.85 µM | < 9.85 µM | < 9.85 µM | < 9.85 µM

Row | SMILES | IC50 ([1]; fluorescent label: DsRed) | IC50 ([1]; fluorescent label: GFP) | IC50 ([2]; fluorescent label: DsRed) | IC50 ([2]; fluorescent label: GFP)
17 | N[C@@H](C(=O)N[C@@H]1C(=O)N2C(C(=O)O)=C(Cl)CS[C@H]12)c1ccccc1 [Cefaclor (Ceclor)] | 7.22 µM | 7.26 µM | < 0.498 µM | < 0.498 µM
18 | CC(C)(C)c1nc(-c2cccc(NS(=O)(=O)c3c(F)cccc3F)c2F)c(-c2ccnc(N)n2)s1 | 35 µM | 79.2 µM | < 9.85 µM | < 9.85 µM
19 | CCc1cc2c(cc1CC)CC(NC[C@H](O)c1ccc(O)c3[nH]c(=O)ccc13)C2 [Indacaterol Maleate] | 71.1 µM | 91.4 µM | 53.8 µM | 32.2 µM
20 | CCCCCCNC(=O)n1cc(F)c(=O)[nH]c1=O [Carmofur] | < 9.85 µM | < 9.85 µM | < 9.85 µM | < 9.85 µM
21 | CCc1ccc(/C=C2/SC(=S)NC2=O)cc1 | < 9.85 µM | < 9.85 µM | < 9.85 µM | < 9.85 µM
22 | O=C(/C=C/c1ccccc1)c1ccc(O)cc1O [2',4'-DIHYDROXYCHALCONE] | 91.7 µM | 111 µM | 18.7 µM | 17.1 µM
23 | O=C(Nc1ccc([N+](=O)[O-])cc1Cl)c1cc(Cl)ccc1O [Niclosamide] | 113 µM | < 9.85 µM | < 9.85 µM | 73.8 µM
24 | CSc1nc2cc(Cl)c(Oc3cccc(Cl)c3Cl)cc2[nH]1 [TRICLABENDAZOLE] | 14.4 µM | 13.9 µM | < 9.85 µM | < 9.85 µM
25 | COc1ccc([C@@H](C)C(=O)c2ccc(O)cc2O)cc1 [ANGOLENSIN (R)] | 22.3 µM | 27.7 µM | < 9.85 µM | < 9.85 µM
26 | NC(=O)N/N=C/c1ccc([N+](=O)[O-])o1 [ACTIN-N] | 16.2 µM | 15 µM | 10.5 µM | < 9.85 µM
27 | CCCCCCCCc1ccc(CCC(N)(CO)CO)cc1 [Fingolimod (FTY720)] | 15.2 µM and 14.7 µM | 18.8 µM and 14.9 µM | 11.8 µM and < 9.85 µM | 10.7 µM and < 9.85 µM
28 | CC[C@@H]1C(=O)N(C)c2cnc(Nc3ccc(C(=O)NC4CCN(C)CC4)cc3OC)nc2N1C1CCCC1 [BI 2536] | 106 µM | 112 µM | 21.6 µM | 30.1 µM
29 | N[C@@H](C(=O)N[C@@H]1C(=O)N2C(C(=O)O)=C(Cl)CS[C@H]12)c1ccccc1 [Cefaclor] | < 9.85 µM | < 9.85 µM | < 9.85 µM | < 9.85 µM
30 | NS(=O)(=O)c1ccc(-n2nc(C(F)(F)F)cc2-c2ccc(Cl)cc2)cc1 [SC-236] | 94.1 µM | 97.3 µM | 26.4 µM | 16.3 µM
31 | C[C@@H]1CN(c2c(F)c(N)c3c(=O)c(C(=O)O)cn(C4CC4)c3c2F)C[C@H](C)N1 [ZAGAM] | < 9.85 µM | < 9.85 µM | < 9.85 µM | < 9.85 µM
